In US7381739B2, “2,4-substituted indoles and methods of use” (Roche Palo Alto LLC, priority 2002, dated 2008):

Target: T1, recombinant human 5-HT6 receptor (Homo sapiens, UniProt P50406)
T1 construct: expressed in transfected cells
Experiment: in vitro radioligand binding, [3H]LSD competition in HEK293 cell membranes
Conditions: not given
Method: The binding activity of compounds of this invention in vitro was determined as follows. Duplicate determinations of ligand affinity are made by competing for binding of [^3H]LSD in cell membranes derived from HEK293 cells stably expressing recombinant human 5-HT6 receptor.
All determinations were made in assay buffer containing 50 mM Tris-HCl, 10 mM MgSO4, 0.5 mM EDTA, 1 mM ascorbic acid, pH 7.4 at 37° C., in a 250 microliter reaction volume. Assay tubes containing [^3H] LSD (5 nM), competing ligand, and membrane were incubated in a shaking water bath for 60 min. at 37° C., filtered onto Packard GF-B plates (pre-soaked with 0.3% PEI) using a Packard 96 well cell harvester and washed 3 times in ice cold 50 mM Tris-HCl. Bound [^3H] LSD was determined as radioactive counts per minute using Packard TopCount.
Displacement of [3H]LSD from the binding sites was quantified by fitting concentration-binding data to a 4-parameter logistic equation:
[formula] where Hill is the Hill slope, [ligand] is the concentration of competing radioligand and IC50 is the concentration of radioligand producing half-maximal specific binding of radioligand. The specific binding window is the difference between the Bmax and the basal parameters.

T1 sequence (P50406 whole entry): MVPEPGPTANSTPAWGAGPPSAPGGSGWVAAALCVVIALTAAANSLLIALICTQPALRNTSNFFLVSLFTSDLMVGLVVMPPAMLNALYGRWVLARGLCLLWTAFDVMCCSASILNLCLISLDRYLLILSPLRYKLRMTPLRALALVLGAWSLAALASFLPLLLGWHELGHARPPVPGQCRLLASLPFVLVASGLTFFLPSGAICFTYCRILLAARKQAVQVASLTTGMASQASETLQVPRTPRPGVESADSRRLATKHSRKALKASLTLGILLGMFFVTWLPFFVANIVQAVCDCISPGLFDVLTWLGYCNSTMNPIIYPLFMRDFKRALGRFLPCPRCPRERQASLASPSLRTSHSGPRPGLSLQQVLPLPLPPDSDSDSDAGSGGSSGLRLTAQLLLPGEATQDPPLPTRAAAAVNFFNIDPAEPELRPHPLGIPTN

Compound	Ki
Cn1c(S(=O)(=O)c2ccccc2)cc2c(N3CCNCC3)cccc21 [Compound 5, 2-Benzenesulfonyl-1-methyl-4-piperazin-1-yl-1H-indole]	0.2 nM
Cn1c(S(=O)(=O)c2cccc(Br)c2)cc2c(N3CCNCC3)cccc21 [Compound 14, 2-(3-Bromo-benzenesulfonyl)-1-methyl-4-piperazin-1-yl-1H-indole]	0.501 nM

Same assay, conditions: [3H]LSD (5 nM) displacement, membranes of HEK293 cells stably expressing recombinant human 5-HT6 receptor, pH 7.4, 37° C., 60 min; read-out: pKi (converted)

Ki	Compound
0.126 nM	CN1CCN(c2cccc3[nH]c(S(=O)(=O)c4ccccc4)cc23)CC1 [Compound 2, 2-Benzenesulfonyl-4-(4-methyl-piperazin-1-yl)-1H-indole]
0.794 nM	CC1CN(c2cccc3[nH]c(S(=O)(=O)c4ccccc4)cc23)CC(C)N1 (stereo not drawn) [Compound 9, 2-Benzenesulfonyl-4-(3,5-dimethyl-piperazin-1-yl)-1H-indole]
0.126 nM	CN1CCN(c2cccc3[nH]c(S(=O)(=O)c4ccccc4F)cc23)CC1 [Compound 12, 2-(2-Fluoro-benzenesulfonyl)-4-(4-methyl-piperazin-1-yl)-1H-indole]

Compound	Ki
O=S(=O)(c1ccccc1)c1cc2c(C3CCNCC3)cccc2[nH]1 [Compound 15, 2-Benzenesulfonyl-4-piperidin-4-yl-1H-indole]	0.631 nM
